Experimental data taken from patent US11975106B2, “Uses of halogenated xanthenes in oncology and virology” (Provectus Pharmatech, Inc., priority 2020, dated 2024).
Values after ≈ are worked out from the molar mass of the structure shown. Like-named read-outs stand apart in the source and are kept apart here.

Key:
[1] = test system: young male Wistar rats; details: cited from earlier work
[2] = in vivo; cited from earlier work
[3] = test system: SARS-CoV-2; type: cell-based; details: Calu-3 cells, 48-hour RB contact; read-out: EC50 (viral titer)
[4] = Plasma protein binding, ultracentrifugation method, rat plasma; type: in vitro ADME
Excerpt: (§1) In normal rats, 75-80% of the RB was recovered from the albumin fraction and the remaining 20-25% in other protein fractions [Tsao et al. 1988, supra; and Meurman, Acta medica Scan, Supp 167, Chapters I, III, V, VII, X and XII (1960)].

[5] = Plasma protein binding, ultracentrifugation method, human plasma; type: in vitro ADME
Excerpt: as §1

[6] = test system: leukemia cell lines; details: cited from earlier work
[7] = Clinical studies of PV-10 delivered intratumorally; type: in vivo, human
Procedure: In clinical studies of PV-10 (10% disodium RB in saline for injection), RB has been tolerated at a bolus dose of 1500 mg upon intravasation when delivered intratumorally; this equates to an exposure of approximately 300 mg/L in the bloodstream (300 μM RB).

[8] = test system: Vero cells; details: 48 hours
[9] = test system: SARS-CoV-2 isolate USA-WA1/2020; test: microbe, parasite or virus in culture; type: cell-based
[10] = test system: THP-1 AML cells; test: Cytokine/chemokine Bio-Plex assay of THP-1 AML culture supernatants; type: cell-based; details: RB 100 μM
Procedure: (§2) These studies were carried out using RB at 100 μM, or about 0.01% RB. Cytokine assays were carried out prior to the addition of RB to the cell culture medium (0), and at 8, 24 and 48 hours thereafter.
(§3) Proteins that associate with STING in the presence of RB were purified by immunoprecipitation and analyzed by mass spectrometry (LC-MS/MS). The culture supernatants from RB-treated cells were probed for a panel of 42 immune cytokines using the Bio-Plex® multiplex bead-based assay system (Bio-Rad Laboratories, Inc.).

[11] = test system: SARS-CoV-2
[12] = test system: STING; test: STING dimerization by Western blot in THP-1 AML cells; type: cell-based
Procedure: Cells were treated with RB and the induction of STING was evaluated by Western blot analysis using cyclic guanosine monophosphate-adenosine monophosphate (cGAMP) as a positive control.
as §2, §3

[13] = Classic IV diagnostic use of RB, blood concentration; type: in vivo, human; details: 100 mg single IV bolus, blood volume approximately 5 L (also approximately 20 μM)
Procedure: Based on a molecular weight of 1018 g/mole for disodium RB, the classic IV diagnostic use of RB, conducted by giving 100 mg RB as a single IV bolus to adults with a standard blood volume of approximately 5 L, achieved a concentration of approximately 20 mg/L in the blood, or approximately 20 μM RB. Exposure at such a level would have minimal direct cytotoxic effect on solid tumor or hematologic malignancies, as illustrated by the results of Swift et al. 2019 or Swift et al. 2018, above.

[14] = cited from earlier work
[15] = humans, intravenous; cited from earlier work
[16] = cited from earlier work; remark: listed apart in the source
[17] = test system: SARS-CoV-2 viral envelope protein (E gene) vRNA; test: qPCR of viral RNA (E gene) after RB treatment; type: cell-based
[18] = package insert; cited from earlier work
[19] = test system: progressive COVID-19; details: cited from earlier work
[20] = rats, similar concentrations for comparators
[21] = oral 300 mg/kg/day, young male Wistar rats

Compound: O=S(=O)([O-])c1ccc2c(N=Nc3ccc(S(=O)(=O)[O-])c4ccccc34)c(O)c(S(=O)(=O)[O-])cc2c1.[Na+].[Na+].[Na+] [Amaranth, reference compound]
- H^3-UTP incorporation into RNA or RNA content in liver nuclei (RNA synthesis in vivo) ([1]; rat, in vivo): stimulate RNA synthesis

Compound: N#C[C@@]1(c2ccc3c(N)ncnn23)O[C@H](CO)[C@@H](O)[C@H]1O [GS-441524]
- half-life [2]: about 25 hours

Compound: Cc1cc(C)c(N=Nc2c(O)c(S(=O)(=O)[O-])cc3cc(S(=O)(=O)[O-])ccc23)cc1C.[Na+].[Na+] [Ponceau 3R, reference compound]
- H^3-UTP incorporation into RNA or RNA content in liver nuclei (RNA synthesis in vivo) [1, 20]: stimulate RNA synthesis

Compound: O=C1OC2(c3cc(I)c(O)c(I)c3Oc3c2cc(I)c(O)c3I)c2c(Cl)c(Cl)c(Cl)c(Cl)c21 [RB, 4,5,6,7-tetrachloro-2′,4′,5′,7′-tetraiodofluorescein]
- EC50 [3]: 0.015 µM
- plasma protein binding [4]: 99.2%
- plasma protein binding ([4]; 1 μM): 99.0%
- plasma protein binding ([5]; 1 μM): 99.8%
- plasma protein binding ([5]; 10 μM): 99.9%
- IC50 ([6]; primary pediatric leukemia cell lines): 92.8 µM
- IC50 ([6]; refractory (relapsed) pediatric leukemia cell lines): 122 µM
- exposure in the bloodstream ([7]; at 1500 mg bolus (printed also as 300 μM RB)): approximately 300 mg/L
- tolerated bolus dose ([7]; upon intravasation when delivered intratumorally as PV-10): 1500 mg
- CC50 [8]: 175 µM
- IC50 ([9]; RB alone, 2 hours of contact, Vero C1008, read-out: IC50 for inhibition): 67 µM
- IC50 ([9]; RB plus 0.15 μM remdesivir, 2-hour RB contact, Vero C1008, read-out: IC50 for inhibition): 47.4 µM
- increase in IL-6 ([10]; 24 hours following exposure): approximately 10 fold
- increase in IL-8 ([10]; 24 hours following exposure): approximately 10 fold
- increase in IP-10 ([10]; 24 hours following exposure): approximately 10 fold
- MCP-1 levels [10]: significant increase
- induction of IFN gamma ([10]; peak at 24 hours): > 2 fold
- induction of MCP-3 ([10]; peak at 24 hours): > 2 fold
- SI (CC50/EC50) ([11]; Vero cells, 48 hours): 3211
- inhibition in viral titers ([11]; Vero cells, approximately 1 to 100 μM RB, 48 hours of contact): complete inhibition
- EC50 ([11]; read-out: EC50 (viral titer)): 0.054 µM
- STING dimerization (Western blot) ([12]; RB at 100 μM): new about 70-KD STING dimer band
- induction of PDL-1 ([12]; compared to cGAMP controls): no induction
- concentration in the blood [13]: approximately 20 mg/L
- solubility ([14]; in 2-methoxyethanol (printed also as 6%)): 60 mg/mL (≈ 61.6 mM)
- solubility ([14]; in ethanol (printed also as 3%)): 30 mg/mL (≈ 30.8 mM)
- solubility ([14]; in water (printed also as 10%)): ≥ 100 mg/mL
- influence on growth rate [1, 21]: no influence
- relative liver weight [1, 21]: significant decrease
- H^3-UTP incorporation into RNA or RNA content in liver nuclei (RNA synthesis in vivo) [1, 20]: No effect
- circulatory half-life [15]: about 30 minutes
- bound in serum ([16]; equilibrium dialysis, serum from rats lacking serum albumin): more than 99.8%
- recovered from the albumin fraction ([16]; normal rats): 75-80%
- recovered in other protein fractions ([16]; normal rats): 20-25%
- cycle threshold (ct) of sub-genomic viral RNA [17]: higher ct values
- viral E gene copy numbers / viral production ([17]; RB added after the virus has been incubated with the cells): no effect
- viral E gene copy numbers ([17]; virus and RB added at the same time): reduction compared to control
- viral E gene copy numbers ([17]; virus pre-treated with RB 0.6 μM, 1 hour, p<0.05): lower copy numbers

Compound: CCC(CC)COC(=O)[C@H](C)N[P@](=O)(OC[C@H]1O[C@@](C#N)(c2ccc3c(N)ncnn23)[C@H](O)[C@@H]1O)Oc1ccccc1 [remdesivir, reference compound]
- EC50 ([9]; Severe acute respiratory syndrome coronavirus 2, Vero C1008, read-out: EC50 (percent plaque forming unit)): 0.86 µM
- IC50 ([9]; Severe acute respiratory syndrome coronavirus 2, Vero C1008, read-out: IC50 (percent inhibition)): 0.86 µM
- half-life [2]: about 0.89 hours

Compound: Yervoy®: immune checkpoint inhibitor monoclonal antibody
- terminal t1/2 [18]: 15.4 days

Compound: tocilizumab: immunosuppressive humanized monoclonal antibody against the interleukin-6 receptor
- death rate ratio ([19]; 28-day mortality, 95% CI 0.77-0.96, p=0.007): 0.86
- proportional reduction in 28-day mortality ([19]; about 4000 hospitalized patients, progressive COVID-19): 13%
